Experimental data reported in patent publication US10717764B2, “Therapeutically active compounds and their methods of use” (Agios Pharmaceuticals, Inc., priority 2013, dated 2020).

Columns and labels:
[1] = test system: U87MG cells (2-HG production); assay: Cellular assay, inhibition of 2-HG production in U87MG cells; format: cell-based
Procedure: (§1) Cells (HT1080 or U87MG) are grown in T125 flasks in DMEM containing 10% FBS, 1× penicillin/streptomycin and 500 ug/mL G418 (present in U87MG cells only). They are harvested by trypsin and seeded into 96 well white bottom plates at a density of 5000 cell/well in 100 ul/well in DMEM with 10% FBS. […] Cells are incubated overnight at 37° C. in 5% CO2. The next day test compounds are made up at 2× the final concentration and 100 ul are added to each cell well. The final concentration of DMSO is 0.2% and the DMSO control wells are plated in row G. The plates are then placed in the incubator for 48 hours. […] The cell plate is placed back in the incubator for another 24 hours. At 72 hours post compound addition, 10 mL/plate of Promega Cell Titer Glo reagent is thawed and mixed. The cell plate is removed from the incubator and allowed to equilibrate to room temperature. Then 100 ul of Promega Cell Titer Glo reagent is added to each well of media. The cell plate is then placed on an orbital shaker for 10 minutes and then allowed to sit at room temperature for 20 minutes. The plate is then read for luminescence with an integration time of 500 ms.

[2] = test system: HT1080 cells (2-HG production); assay: Cellular assay, inhibition of 2-HG production in HT1080 cells; format: cell-based; details: Homo sapiens, HT-1080, 48 h
Procedure: as §1

[3] = inhibition of 2-HG production, U87MG cells, 48 hours

Row | Molecule | IC50 [1, 3] [nM] | IC50 ([1]; Homo sapiens, U-87 MG, 48 h) [nM] | further results
1 | (S)—N—((S)-1-(2-Chlorophenyl)-2-(3,3-difluorocyclobutylamino)-2-oxoethyl)-N-(3-cyano-5-fluorophenyl)-3-(3-cyanophenyl)-2-oxooxazolidine-4-carboxamide [Compound 134] | < 100 | – | –
2 | (S)—N—((S)-1-(2-Chlorophenyl)-2-((3,3-difluorocyclobutyl)amino)-2-oxoethyl)-1-(4-cyanopyridin-2-yl)-N-(3,5-difluorophenyl)-5-oxopyrrolidine-2-carboxamide [Compound 71] | < 100 | – | –
3 | (S)—N—((S)-1-(2-Chlorophenyl)-2-((4,4-difluorocyclohexyl)amino)-2-oxoethyl)-1-(4-cyanopyridin-2-yl)-N-(1H-indazol-6-yl)-5-oxopyrrolidine-2-carboxamide [Compound 136] | < 100 | – | –
4 | O=C(NC1CC(F)(F)C1)[C@H](c1ccccc1Cl)N(C(=O)[C@@H]1CCC(=O)N1c1ccccn1)c1cccc(F)c1 [Compound 5] | – | 100 to 500 | –
5 | (S)-tert-butyl 3-(((S)-1-(2-chlorophenyl)-2-((3,3-difluorocyclobutyl) amino)-2-oxoethyl)(3,5-difluorophenyl)carbamoyl)-5-oxopiperazine-1-carboxylate [Compound 97] | < 100 | – | –
6 | O=C(NC1CCCCC1)[C@@H](c1ccccc1Cl)N(C(=O)[C@@H]1CCC(=O)N1c1ncccn1)c1cccc(F)c1 [Compound 6] | – | – | IC50 [2]: 100 to 500 nM
7 | CS(=O)(=O)c1cc(F)cc(N(C(=O)[C@@H]2CCC(=O)N2c2cc(C#N)ccn2)C(C(=O)NC2CC(F)(F)C2)c2ccccc2Cl)c1 (stereo partly drawn) [Compound 110, (2S)—N-(1-(2-Chlorophenyl)-2-((3,3-difluorocyclobutyl)amino)-2-oxoethyl)-1-(4-cyanopyridin-2-yl)-N-(3-fluoro-5-(methylsulfonyl)phenyl)-5-oxopyrrolidine-2-carboxamide] | – | < 100 | –
8 | O=C(N[C@H]1CCC(F)(F)C1)[C@H](c1ccccc1Cl)N(C(=O)[C@@H]1CCC(=O)N1c1ncccn1)c1cccc(F)c1 (stereo in doubt) [Compound 73] | – | < 100 | –

Continued, in another order:

Row | IC50 [1, 3] [nM] | IC50 ([1]; Homo sapiens, U-87 MG, 48 h) [nM] | Molecule | further results
9 | < 100 | – | (S)—N—((S)-1-(2-Chlorophenyl)-2-(3,3-difluorocyclobutylamino)-2-oxoethyl)-1-(3-cyano-phenyl)-N-(1H-indazol-7-yl)-5-oxopyrrolidine-2-carboxamide [Compound 186] | –
10 | – | < 100 | N#Cc1ccnc(N2C(=O)CC[C@H]2C(=O)N(c2cc(F)cc(F)c2)[C@H](C(=O)NC2CC(F)(F)C2)c2ccccc2F)c1 [Compound 208, (S)-1-(4-Cyanopyridin-2-yl)-N—((S)-2-(3,3-difluorocyclobutylamino)-1-(2-fluorophenyl)-2-oxoethyl)-N-(3,5-difluorophenyl)-5-oxopyrrolidine-2-carboxamide] | –
11 | < 100 | – | (S)—N—((S)-1-(2-Chlorophenyl)-2-((3,3-difluorocyclobutyl)amino)-2-oxoethyl)-1-(4-cyanopyridin-2-yl)-N-(1H-indazol-6-yl)-5-oxopyrrolidine-2-carboxamide [Compound 205] | –
12 | < 100 | – | N#Cc1cccc(N2C(=O)OC[C@H]2C(=O)N(c2cccc3cn[nH]c23)[C@H](C(=O)NC2CCC(F)(F)CC2)c2ccccc2Cl)c1 [Compound 142, (S)—N—((S)-1-(2-Chlorophenyl)-2-(4,4-difluorocyclohexylamino)-2-oxoethyl)-3-(3-cyanophenyl)-N-(1H-indazol-7-yl)-2-oxooxazolidine-4-carboxamide] | –
13 | – | < 100 | C[C@]1(O)C[C@@H](C(=O)N(c2cccc(F)c2)[C@H](C(=O)NC2CC(F)(F)C2)c2ccccc2Cl)N(c2cc(C#N)ccn2)C1=O (stereo in doubt) [Compound 183, (2S)—N—((R)-1-(2-chlorophenyl)-2-(3,3-difluorocyclobutylamino)-2-oxoethyl)-1-(4-cyanopyridin-2-yl)-N-(3-fluorophenyl)-4-hydroxy-4-methyl-5-oxopyrrolidine-2-carboxamide] | –
